Read-outs that look alike come from different tables or passages of the source.
Assays:
[1] = test system: Heliothis armigera larvae; assay: Heliothis armigera test (soybean sprouts dipped, larvae); type: in vivo
Excerpt: Heliothis armigera Test To prepare one of the appropriate active ingredient preparations, mix 1 part by weight of the active ingredient with the indicated amount of solvent and emulsifier and dilute the concentrate with emulsifier-containing water to the desired concentration. Treat soybean sprouts (Glycine max) by dipping into the active ingredient preparation of the desired concentration and infesting with Heliothis armigera larvae while the leaves are still damp. After the desired time, determine the death rate in %. For these purposes 100% means that all the larvae on the leaves were killed; 0% means that no larvae were killed.

[2] = test system: larvae of the beet armyworm (Spodoptera exigua); assay: Spodotera exigua test (cabbage leaves dipped); type: in vivo
Excerpt: (§1) Spodotera exigua Test To prepare one of the appropriate active ingredient preparations, mix 1 part by weight of the active ingredient with the indicated amount of solvent and emulsifier and dilute the concentrate with emulsifier-containing water to the desired concentration. Treat cabbage leaves (Brassica oleracea) by dipping into the active ingredient preparation of the desired concentration and infesting them with larvae of the beet armyworm (Spodoptera exigua) while the leaves are still damp. After the desired time, determine the death rate in %. For these purposes 100% means that all the larvae on the leaves were killed; 0% means that no larvae were killed.

[3] = test system: larvae of the mustard beetle (Phaedon cochleariae); assay: Phaedon larvae test (cabbage leaves dipped); type: in vivo
Excerpt: Phaedon Larvae Test To prepare one of the appropriate active ingredient preparations, mix 1 part by weight of the active ingredient with the indicated amount of solvent and emulsifier and dilute the concentrate with emulsifier-containing water to the desired concentration. Treat cabbage leaves (Brassica oleracea) by dipping into the active ingredient preparation of the desired concentration and infesting with larvae of the mustard beetle (Phaedon cochleariae) while the leaves are still damp. After the desired time, determine the death rate in %. For this purpose 100% means that all the beetle larvae on the leaves were killed; 0% means that no beetle larvae were killed.

[4] = logP determination by HPLC on reversed phase column (C 18), EEC directive 79/831; type: physicochemical; details: reversed phase HPLC column (C 18)
Description: Determine the logP values given in the table as specified in EEC directive 79/831 ex V.A8 using HPLC (high performance liquid chromatography) in a reversed e column (C 18). Temperature: 43° C.
(a) eluents for determination in the acid range: 0.1% aqueous phosphoric acid, acetonitrile, linear gradient of 10% acetonitrile to 90% acetonitrile—corresponding measurement results are marked with an a) in Table 1.
(b) eluents for determination in the neutral range: 0.01-molar aqueous phosphate buffer solution, acetonitrile, linear gradient of 10% acetonitrile to 90% acetonitrile—corresponding measurement results are marked with a b) [sic] in Table 1.
Calibration is done using unbranched alkane-2-ones (with 3 to 16 carbon atoms), whose logP values are known (determination of the logP values using the retention times via linear interpolation between two sequential ketones).

[5] = test system: larvae of the diamondback moth (Plutella xylostella); assay: Plutella test (cabbage leaves dipped); type: in vivo
Excerpt: as §1, with “Plutella” for “Spodotera exigua”, “infesting” for “infesting them”, “diamondback moth (Plutella xylostella)” for “beet armyworm (Spodoptera exigua)”

[6] = test system: larvae of the fall armyworm (Spodoptera frugiperda); assay: Spodoptera frugiperda test (cabbage leaves dipped); type: in vivo
Excerpt: as §1, with “Spodoptera frugiperda” for “Spodotera exigua”, “fall” for “beet”, “frugiperda)” for “exigua)”

[7] = 500 ppm active ingredient, after 7d, cabbage leaves

Structure (SMILES)	Death rate in % after 7d ([1]; 500 ppm active ingredient, after 7d, soybean sprouts)	efficacy (in words) ([1]; Heliothis armigera test)	Death rate in % after 7d [2, 7]	efficacy (in words) ([2]; Spodotera exigua test)	Death rate in % after 7d [3, 7]	efficacy (in words) ([3]; Phaedon larvae test)	chromatographic logP ([4]; pH 2.3, read-out: logp (pH: 2.3))	Death rate in % after 7d [5, 7]	efficacy (in words) ([5]; Plutella test)	Death rate in % after 7d [6, 7]	efficacy (in words) ([6]; Spodoptera frugiperda test)	chromatographic logP ([4]; pH 2, pH2)
N#CCN(C(=O)N1CCC(n2cc(Cl)cn2)C(c2cccc(C(F)(F)F)c2)=N1)c1ccc(OC(F)(F)F)cc1 (stereo not drawn) [Example 1, N-cyanomethyl-4-(4-chloropyrazole-1-yl)-1-(4-trifluoromethoxy-phenylamino)-3-(trifluoromethyl-phenyl)-carbonyl-1,4,5,6-tetrahydropyridazine]	100%	good efficacy	100%	good efficacy	100%	good efficacy	4.22	100%	good efficacy	100%	good efficacy	–
N#Cc1cccc(C(=O)C(Br)CCCl)c1 (stereo not drawn) [Example (X-1), 3′-cyano-2-bromo-4-chlorobutyrophenone]	–	–	–	–	–	–	–	–	–	–	–	3.09
